Where two headings read alike, the source gives them in different places.
Experiments:
Hck tyrosine kinase = Hck tyrosine kinase (Homo sapiens (Human), UniProt P08631); test: in vitro Hck tyrosine kinase inhibition; format: biochemical; settings: 1 uM compound; for inhibition at 1 µM: read-out: % inhibition against Hck
[1] = system: TNF-α synthesis in J744A.1 macrophages; test: inhibition of TNF-α synthesis in LPS-activated macrophages (ELISA); format: cell-based; settings: Macrophage; 10 μM compound, 100 ng/ml LPS, 6 hours; read-out: Inhibition (%) of TNF-α synthesis
DDR2 tyrosine kinase = DDR2 tyrosine kinase (Homo sapiens (Human), UniProt Q16832); test: in vitro DDR2 tyrosine kinase inhibition (GST-fused kinase domain); format: biochemical; settings: 1 uM compound; for inhibition at 1 µM: read-out: % inhibition against DDR2
Chain of DDR2 tyrosine kinase (Q16832 563-849): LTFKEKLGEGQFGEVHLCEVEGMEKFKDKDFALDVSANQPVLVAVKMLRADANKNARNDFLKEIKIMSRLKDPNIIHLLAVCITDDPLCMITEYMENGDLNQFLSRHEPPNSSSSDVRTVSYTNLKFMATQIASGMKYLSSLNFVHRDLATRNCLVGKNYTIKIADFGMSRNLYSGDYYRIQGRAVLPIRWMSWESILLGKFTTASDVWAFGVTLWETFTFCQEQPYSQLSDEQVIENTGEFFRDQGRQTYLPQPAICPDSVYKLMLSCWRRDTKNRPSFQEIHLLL

DDR1 tyrosine kinase = DDR1 tyrosine kinase (Homo sapiens (Human), UniProt Q08345); test: in vitro DDR1 tyrosine kinase inhibition (GST-fused kinase domain); format: biochemical; settings: 1 uM compound; for inhibition at 1 µM: read-out: % inhibition against DDR1
Chain of DDR1 tyrosine kinase (Q08345 610-905): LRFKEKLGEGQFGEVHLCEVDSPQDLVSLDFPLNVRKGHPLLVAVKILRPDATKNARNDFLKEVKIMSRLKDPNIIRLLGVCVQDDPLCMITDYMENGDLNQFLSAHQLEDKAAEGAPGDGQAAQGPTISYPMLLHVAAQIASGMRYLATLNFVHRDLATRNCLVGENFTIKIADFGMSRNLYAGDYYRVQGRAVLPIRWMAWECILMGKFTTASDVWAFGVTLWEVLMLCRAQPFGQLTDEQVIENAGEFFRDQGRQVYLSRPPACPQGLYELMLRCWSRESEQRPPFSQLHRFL

Lyn tyrosine kinase = Lyn tyrosine kinase (Homo sapiens (Human), UniProt P07948); test: in vitro Lyn tyrosine kinase inhibition; format: biochemical; settings: 1 uM compound; for inhibition at 1 µM: read-out: % inhibition against Lyn
Chain of Lyn tyrosine kinase (P07948 whole entry): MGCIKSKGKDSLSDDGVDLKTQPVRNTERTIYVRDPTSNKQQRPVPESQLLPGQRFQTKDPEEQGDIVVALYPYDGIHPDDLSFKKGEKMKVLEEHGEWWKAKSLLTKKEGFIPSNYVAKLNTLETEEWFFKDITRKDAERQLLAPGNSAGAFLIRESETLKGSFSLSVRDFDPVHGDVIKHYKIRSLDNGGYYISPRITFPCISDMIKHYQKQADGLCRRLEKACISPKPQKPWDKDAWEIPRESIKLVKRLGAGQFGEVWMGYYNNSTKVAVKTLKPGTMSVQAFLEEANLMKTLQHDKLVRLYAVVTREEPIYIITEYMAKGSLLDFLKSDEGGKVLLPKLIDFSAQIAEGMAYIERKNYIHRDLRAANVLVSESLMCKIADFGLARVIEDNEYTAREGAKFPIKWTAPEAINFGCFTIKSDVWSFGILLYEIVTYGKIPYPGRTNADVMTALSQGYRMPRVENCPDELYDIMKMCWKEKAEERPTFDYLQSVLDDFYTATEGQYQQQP

[2] = system: NO synthesis in J744A.1 macrophage; test: inhibition of nitric oxide (NO) synthesis in LPS-activated macrophages (Griess reagent); format: cell-based; settings: read-out: Inhibition (%) of NO synthesis
Fgr tyrosine kinase = Fgr tyrosine kinase (Homo sapiens (Human), UniProt P09769); test: in vitro Fgr tyrosine kinase inhibition; format: biochemical; settings: 1 uM compound; for inhibition at 1 µM: read-out: % inhibition against Fgr
Chain of Fgr tyrosine kinase (P09769 whole entry): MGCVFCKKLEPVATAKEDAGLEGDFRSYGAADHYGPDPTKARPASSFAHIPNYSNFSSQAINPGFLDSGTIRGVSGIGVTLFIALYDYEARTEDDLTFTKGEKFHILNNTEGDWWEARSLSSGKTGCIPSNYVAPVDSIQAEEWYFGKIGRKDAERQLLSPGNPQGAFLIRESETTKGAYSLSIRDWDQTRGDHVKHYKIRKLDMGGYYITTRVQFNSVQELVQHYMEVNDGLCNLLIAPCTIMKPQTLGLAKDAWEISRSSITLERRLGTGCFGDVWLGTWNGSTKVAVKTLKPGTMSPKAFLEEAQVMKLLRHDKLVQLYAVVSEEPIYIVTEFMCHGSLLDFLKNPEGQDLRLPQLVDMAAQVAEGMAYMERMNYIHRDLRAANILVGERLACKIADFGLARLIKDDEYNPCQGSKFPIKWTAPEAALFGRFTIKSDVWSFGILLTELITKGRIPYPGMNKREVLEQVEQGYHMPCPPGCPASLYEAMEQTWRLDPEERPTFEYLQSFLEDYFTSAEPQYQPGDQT

c-Src tyrosine kinase = c-Src tyrosine kinase (Homo sapiens (Human), UniProt P12931); test: in vitro c-Src tyrosine kinase inhibition (32P-ATP, poly(D4Y)n substrate); format: biochemical; settings: 1 uM compound; for inhibition at 1 µM: read-out: % inhibition against c-Src
Chain of c-Src tyrosine kinase (P12931 whole entry, looked up): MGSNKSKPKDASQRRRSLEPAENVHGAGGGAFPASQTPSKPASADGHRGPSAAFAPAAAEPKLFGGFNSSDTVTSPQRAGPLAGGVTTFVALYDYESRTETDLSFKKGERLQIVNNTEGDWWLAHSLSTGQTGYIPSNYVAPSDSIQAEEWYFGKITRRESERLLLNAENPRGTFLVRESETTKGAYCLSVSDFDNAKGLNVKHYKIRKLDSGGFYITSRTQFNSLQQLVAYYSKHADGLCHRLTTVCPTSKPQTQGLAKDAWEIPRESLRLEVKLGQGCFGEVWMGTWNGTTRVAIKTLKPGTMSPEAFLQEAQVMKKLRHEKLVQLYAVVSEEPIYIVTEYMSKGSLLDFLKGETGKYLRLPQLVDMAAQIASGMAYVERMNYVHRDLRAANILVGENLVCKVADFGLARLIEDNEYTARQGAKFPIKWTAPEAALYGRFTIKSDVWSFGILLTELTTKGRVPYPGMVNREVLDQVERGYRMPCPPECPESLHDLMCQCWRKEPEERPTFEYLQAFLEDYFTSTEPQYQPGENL

Chain of Hck tyrosine kinase (P08631 whole entry): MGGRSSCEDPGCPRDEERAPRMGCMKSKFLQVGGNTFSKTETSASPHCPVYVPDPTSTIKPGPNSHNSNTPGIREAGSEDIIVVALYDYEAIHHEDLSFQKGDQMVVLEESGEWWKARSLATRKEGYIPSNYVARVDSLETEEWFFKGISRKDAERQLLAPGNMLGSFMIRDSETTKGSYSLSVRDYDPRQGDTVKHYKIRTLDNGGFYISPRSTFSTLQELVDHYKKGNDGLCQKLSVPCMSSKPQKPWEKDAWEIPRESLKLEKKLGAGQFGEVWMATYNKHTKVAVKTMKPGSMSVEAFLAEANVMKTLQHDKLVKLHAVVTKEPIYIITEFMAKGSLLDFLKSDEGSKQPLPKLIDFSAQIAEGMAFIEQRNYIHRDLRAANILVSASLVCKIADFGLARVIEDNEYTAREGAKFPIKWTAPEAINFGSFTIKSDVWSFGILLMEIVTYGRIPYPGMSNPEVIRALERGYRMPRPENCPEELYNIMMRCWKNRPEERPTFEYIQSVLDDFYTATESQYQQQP

Structure (SMILES)	inhibition at 1 µM (Hck tyrosine kinase) [%]	inhibition at 1 µM (DDR2 tyrosine kinase) [%]	inhibition at 1 µM (DDR1 tyrosine kinase) [%]	inhibition at 1 µM (Lyn tyrosine kinase) [%]	inhibition at 1 µM (Fgr tyrosine kinase) [%]	inhibition at 1 µM (c-Src tyrosine kinase) [%]	% inhibition against Hck (Hck tyrosine kinase) [%]	% inhibition against DDR2 (DDR2 tyrosine kinase) [%]	% inhibition against DDR1 (DDR1 tyrosine kinase) [%]	% inhibition against Lyn (Lyn tyrosine kinase) [%]	% inhibition against Fgr (Fgr tyrosine kinase) [%]	% inhibition against c-Src (c-Src tyrosine kinase) [%]	inhibition at 10 µM [1] [%]	inhibition at 10 µM ([2]; 10 μM compound, LPS, 24 hours) [%]	inhibition at 10 µM ([2]; 24 h) [%]
Oc1cccc(Nc2ncnc3cc(-c4ccccc4)sc23)c1 [LCB 03-0008, 3-(6-phenylthieno[3,2-d]pyrimidin-4-ylamino)phenol]	> 70	> 70	> 70	> 70	> 70	> 70	–	–	–	–	–	–	67	87	–
COc1ccc(-c2cc3ncnc(Nc4cccc(O)c4)c3s2)cc1 [LCB 03-0017, 3-[6-(4-Methoxy-phenyl)-thieno[3,2-d]pyrimidin-4-ylamino]-phenol]	> 60	> 70	> 70	> 60	> 60	> 60	–	–	–	–	–	–	–	82	–
COc1cccc(Nc2ncnc3cc(-c4ccc(OCCN5CCOCC5)cc4)sc23)c1 [LCB 03-0018, N-(3-methoxyphenyl)-6-(4-(2-morpholinoethoxy)phenyl)thieno[3,2-d]pyrimidin-4-amine]	> 70	> 70	> 70	> 70	> 70	> 70	–	–	–	–	–	–	68	89	–
Oc1cccc(Nc2ncnc3cc(-c4ccco4)sc23)c1 [LCB 03-0038, 3-(6-(furan-2-yl)thieno[3,2-d]pyrimidin-4-ylamino)phenol]	> 50	> 70	> 70	> 60	> 50	> 60	–	–	–	–	–	–	85	88	–
CN1CCN(C(=O)Cc2ccc(-c3cc4ncnc(Nc5cccc(O)c5)c4s3)cc2)CC1 [LCB 03-0047, 2-(4-(4-(3-hydroxyphenylamino)thieno[3,2-d]pyrimidin-6-yl)phenyl)-1-(4-methylpiperazin-1-yl)ethanone]	> 30	> 70	> 70	> 20	> 30	> 30	–	–	–	–	–	–	–	–	56
CCOCc1ccc(-c2cc3ncnc(Nc4cccc(O)c4)c3s2)cc1 [LCB 03-0073, 3-(6-(4-(ethoxymethyl)phenyl)thieno[3,2-d]pyrimidin-4-ylamino)phenol]	> 30	> 80	> 80	> 30	> 30	> 30	–	–	–	–	–	–	–	85	–
Oc1cccc(Nc2ncnc3cc(-c4ccc(N5CCOCC5)cc4)sc23)c1 [LCB 03-0082, 3-(6-(4-morpholinophenyl)thieno[3,2-d]pyrimidin-4-ylamino)phenol]	> 70	–	–	> 70	> 70	> 70	–	–	–	–	–	–	77	90	–
Oc1cccc(Nc2ncnc3cc(-c4cc(CN5CCOCC5)cs4)sc23)c1 [LCB 03-0104, 3-(6-(4-(morpholinomethyl)thiophene-2-yl)thieno[3,2-d]pyrimidin-4-ylamino)phenol]	> 50	> 80	> 80	> 50	> 50	> 50	–	–	–	–	–	–	–	–	–
CCNCc1csc(-c2cc3ncnc(Nc4cccc(O)c4)c3s2)c1 [LCB 03-0106, 3-(6-(4-((ethylamino)methyl)thiophene-2-yl)thieno[3,2-d]pyrimidin-4-ylamino)phenol]	> 70	> 70	> 70	> 70	> 70	> 70	–	–	–	–	–	–	63	–	–
Oc1cccc(Nc2ncnc3cc(-c4cc(CN5CCCC5)co4)sc23)c1 [LCB 03-0113, 3-(6-(4-(pyrrolidin-1-ylmethyl)furan-2-yl)thieno[3,2-d]pyrimidin-4-ylamino)phenol]	> 50	> 70	> 70	> 50	> 50	> 50	–	–	–	–	–	–	–	–	–

More lines, main results first:

inhibition at 1 µM (Hck tyrosine kinase) [%]	inhibition at 1 µM (DDR2 tyrosine kinase) [%]	inhibition at 1 µM (DDR1 tyrosine kinase) [%]	inhibition at 1 µM (Lyn tyrosine kinase) [%]	inhibition at 1 µM (Fgr tyrosine kinase) [%]	inhibition at 1 µM (c-Src tyrosine kinase) [%]	% inhibition against Hck (Hck tyrosine kinase) [%]	% inhibition against DDR2 (DDR2 tyrosine kinase) [%]	% inhibition against DDR1 (DDR1 tyrosine kinase) [%]	% inhibition against Lyn (Lyn tyrosine kinase) [%]	% inhibition against Fgr (Fgr tyrosine kinase) [%]	% inhibition against c-Src (c-Src tyrosine kinase) [%]	Structure (SMILES)	inhibition at 10 µM [1] [%]	inhibition at 10 µM ([2]; 10 μM compound, LPS, 24 hours) [%]	inhibition at 10 µM ([2]; 24 h) [%]
> 60	> 20	> 20	> 60	> 60	> 60	–	–	–	–	–	–	Oc1cccc(Nc2ncnc3cc(Br)sc23)c1 [LCB 03-0015, 3-(6-Bromo-thieno[3,2-d]pyrimidin-4-ylamino)-phenol]	71	–	–
–	–	–	–	–	–	>30	>70	>70	>40	>30	>40	COc1cccc(Nc2ncnc3cc(-c4cccs4)sc23)c1 [LCB 03-0030, (3-Methoxyphenyl)-(6-thiophene-2-yl-thieno[3,2-d]pyrimidin-4-yl)-amine]	80	96	–
> 30	> 80	> 80	> 30	> 30	> 30	–	–	–	–	–	–	Oc1cccc(Nc2ncnc3cc(-c4ccc(CCN5CCCC5)cc4)sc23)c1 [LCB 03-0043]	–	66	–
> 60	> 70	> 70	> 60	> 60	> 60	–	–	–	–	–	–	CN1CCN(Cc2csc(-c3cc4ncnc(Nc5cccc(O)c5)c4s3)c2)CC1 [LCB 03-0102, 3-(6-(4-((4-methylpiperazin-1-yl)methyl)thiophene-2-yl)thieno[3,2-d]pyrimidin-4-ylamino)phenol]	–	97	–
> 50	> 70	> 70	> 50	> 50	> 50	–	–	–	–	–	–	Oc1cccc(Nc2ncnc3cc(-c4cc(CN5CCCCC5)cs4)sc23)c1 [LCB 03-0103, 3-(6-(4-(piperidin-1-ylmethyl)thiophene-2-yl)thieno[3,2-d]pyrimidin-4-ylamino)phenol]	–	–	–
> 50	> 70	> 70	> 50	> 50	> 50	–	–	–	–	–	–	Oc1cccc(Nc2ncnc3cc(-c4cc(CN5CCNCC5)cs4)sc23)c1 [LCB 03-0105, 3-(6-(4-(piperazin-1-ylmethyl)thiophene-2-yl)thieno[3,2-d]pyrimidin-4-ylamino)phenol]	–	–	–
> 50	> 70	> 70	> 50	> 50	> 50	–	–	–	–	–	–	CN1CCN(Cc2coc(-c3cc4ncnc(Nc5cccc(O)c5)c4s3)c2)CC1 [LCB 03-0114, 3-(6-(4-((4-methylpiperazin-1-yl)methyl)furan-2-yl)thieno[3,2-d]pyrimidin-4-ylamino)phenol]	–	–	–
> 50	> 70	> 70	> 50	> 50	> 50	–	–	–	–	–	–	Oc1cccc(Nc2ncnc3cc(-c4cc(CN5CCCCC5)co4)sc23)c1 [LCB 03-0115, 3-(6-(4-(piperidin-1-ylmethyl)furan-2-yl)thieno[3,2-d]pyrimidin-4-ylamino)phenol]	–	–	–

— US9062066B2, “Anti-inflammatory compound having inhibitory activity against multiple tyrosine kinases and pharmaceutical composition containing same” (KOREA INSTITUTE OF SCIENCE AND TECHNOLOGY, priority 2010, dated 2015)
